From patent US10844044B2 (Vanderbilt University, priority 2018, dated 2020)
Where two headings read alike, the source gives them in different places.

Target: WDR5 (Homo sapiens (Human), UniProt P61964)
Experiment: TR-FRET binding assay (displacement of 10mer-Thr-FAM probe from WDR5)
Settings: read-out: Ki for Inhibition of WDR5 by TR-FRET assay
[1] = TR-FRET, 10mer-Thr-FAM probe, WDR5-His tag 2 nM, pH 7.0

| SMILES | Ki [nM] | Ki [1] [nM] |
| --- | --- | --- |
| Cc1cc([C@@H](NC(=O)c2cc(Cn3ccn(C)c3=N)cc(-c3cncnc3C(F)(F)F)c2)C2CC2)ccc1F [Example 123, (S)—N-(Cyclopropyl(4-fluoro-3-methylphenyl)methyl)-3-((2-imino-3-methyl-2,3-dihydro-1H-imidazol-1-yl)methyl)-5-(4-(trifluoromethyl)pyrimidin-5-yl)benzamide] | 0.18 |  |
| Cc1cc(F)ccc1-c1cc(Cn2ccoc2=N)cc(C(=O)NCc2ccc(Cl)c(Cl)c2)n1 [Example 277, N-(3,4-Dichlorobenzyl)-6-(4-fluoro-2-methylphenyl)-4-((2-iminooxazol-3(2H)-yl)methyl)picolinamide] |  | > 33 |
| Cc1cc([C@@H](NC(=O)c2cc(Cn3ccn(C)c3=N)cc(N3CCC[C@@H]3C(F)(F)F)c2)C2CC2)ccc1F [Example 222, N—((S)-Cyclopropyl(4-fluoro-3-methylphenyl)methyl)-3-((2-imino-3-methyl-2,3-dihydro-1H-imidazol-1-yl)methyl)-5-((R)-2-(trifluoromethyl)pyrrolidin-1-yl)benzamide] |  | 0.33 |
| COC(=O)CC(NC(=O)c1cc(Cn2ccn(C)c2=N)cc(-c2ccc(F)cc2C(F)(F)F)c1F)c1ccc(Cl)c(Cl)c1 (stereo not drawn) [Example 110, Methyl 3-(3,4-dichlorophenyl)-3-(2,4′-difluoro-5-((2-imino-3-methyl-2,3-dihydro-1H-imidazol-1-yl)methyl)-2′-(trifluoromethyl)-[1,1′-biphenyl]-3-carboxamido)propanoate] |  | 0.1 |
| Cc1ccnc(C(NC(=O)c2cc(Cn3ccn(C)c3=N)cc(-c3ccc(F)cc3C)n2)C2CC2)c1 (stereo not drawn) [Example 356, N-(Cyclopropyl(4-methylpyridin-2-yl)methyl)-6-(4-fluoro-2-methylphenyl)-4-((2-imino-3-methyl-2,3-dihydro-1H-imidazol-1-yl)methyl)picolinamide] |  | 182 |
| Cc1cc(CNC(=O)c2cc(Cn3cc[nH]c3=N)cc(-c3cccn3C)c2)ccc1Cl [Example 19, N-(4-Chloro-3-methylbenzyl)-3-((2-imino-2,3-dihydro-1H-imidazol-1-yl)methyl)-5-(1-methyl-1H-pyrrol-2-yl)benzamide] |  | 0.35 |
| CCn1cc(-c2cc(CN3CCOC3=N)cc(C(=O)NCC3CCOC3)c2)c(C(F)(F)F)n1 (stereo not drawn) [Example 290, 3-(1-Ethyl-3-(trifluoromethyl)-1H-pyrazol-4-yl)-5-((2-iminooxazolidin-3-yl)methyl)-N-((tetrahydrofuran-3-yl)methyl)benzamide] |  | 20 |
| Cc1ccnc([C@@H](NC(=O)c2cc(Cn3ccn(C)c3=N)cc(OCC3CC3)c2)C2CC2)c1 [Example 182, (S)—N-(Cyclopropyl(4-methylpyridin-2-yl)methyl)-3-(cyclopropylmethoxy)-5-((2-imino-3-methyl-2,3-dihydro-1H-imidazol-1-yl)methyl)benzamide] |  | 1 |
| COc1cc(-c2cc(Cn3ccn(C)c3=N)cc(C(=O)NC(c3cc(C)ccn3)C3CC3)c2)ccn1 (stereo not drawn) [Example 14] |  | 6 |
| Cc1cc([C@@H](NC(=O)c2cc(CN3C[C@H](C)OC3=N)cc(-c3cccnc3C(F)(F)F)c2)C2CC2)ccc1F [Example 296, N—((S)-cyclopropyl(4-fluoro-3-methylphenyl)methyl)-3-(((S)-2-imino-5-methyloxazolidin-3-yl)methyl)-5-(2-(trifluoromethyl)pyridin-3-yl)benzamide] | 7 |  |
| Cc1ccccc1-c1cc(Cn2ccn(C)c2=N)cc(C(=O)NCc2ccc(Cl)c(Cl)c2)c1 [Example 92, N-(3,4-dichlorobenzyl)-5-((2-imino-3-methyl-2,3-dihydro-1H-imidazol-1-yl)methyl)-2′-methyl-[1,1′-biphenyl]-3-carboxamide] |  | 0.72 |
| Cc1cc([C@@H](NC(=O)c2cc(Cn3ccn(C)c3=N)cc(-c3cn(CC(C)C)nc3C(F)(F)F)c2)C2CC2)ccc1F [Example 165, (S)—N-(Cyclopropyl(4-fluoro-3-methylphenyl)methyl)-3-((2-imino-3-methyl-2,3-dihydro-1H-imidazol-1-yl)methyl)-5-(1-isobutyl-3-(trifluoromethyl)-1H-pyrazol-4-yl)benzamide] |  | 0.14 |
| Cc1cc([C@@H](NC(=O)c2cc(CN3CCSC3=N)cc(-c3ccc(F)cc3C#N)c2)C2CC2)ccc1F [Example 316] | 0.91 |  |
| Cn1ccn(Cc2cc(C(=O)NCc3ccc(Cl)c(Cl)c3)cc(-c3cccc4c3OC(F)(F)O4)c2)c1=N [Example 168, N-(3,4-Dichlorobenzyl)-3-(2,2-difluorobenzo[d][1,3]dioxol-4-yl)-5-((2-imino-3-methyl-2,3-dihydro-1H-imidazol-1-yl)methyl)benzamide] |  | 27 |
| C[C@H](NC(=O)c1cc(Cn2ccn(C)c2=N)cc(-c2cccnc2C(F)(F)F)c1)c1ccc(F)c(Cl)c1 [Example 124, (S)—N-(1-(3-chloro-4-fluorophenyl)ethyl)-3-((2-imino-3-methyl-2,3-dihydro-1H-imidazol-1-yl)methyl)-5-(2-(trifluoromethyl)pyridin-3-yl)benzamide] | 1 |  |
| Cn1ccn(Cc2cc(C(=O)N[C@H](c3ccc(F)cn3)C3CC3)cc(-c3cccnc3C(F)(F)F)c2)c1=N [Example 128, (S)—N-(Cyclopropyl(5-fluoropyridin-2-yl)methyl)-3-((2-imino-3-methyl-2,3-dihydro-1H-imidazol-1-yl)methyl)-5-(2-(trifluoromethyl)pyridin-3-yl)benzamide] |  | 23 |
| Cc1ccnc(C(NC(=O)c2cc(Cn3ccn(C)c3=N)cc(OC(F)(F)F)c2)C2CC2)c1 (stereo not drawn) [Example 145, N-(Cyclopropyl(4-methylpyridin-2-yl)methyl)-3-((2-imino-3-methyl-2,3-dihydro-1H-imidazol-1-yl)methyl)-5-(trifluoromethoxy)benzamide] |  | 0.95 |
| CCn1cc(-c2cc(CN3CCOC3=N)cc(C(=O)NCC3CCCO3)c2)c(C(F)(F)F)n1 (stereo not drawn) [Example 289, 3-(1-Ethyl-3-(trifluoromethyl)-1H-pyrazol-4-yl)-5-((2-iminooxazolidin-3-yl)methyl)-N-((tetrahydrofuran-2-yl)methyl)benzamide] |  | 31 |
| Cc1cc(CNC(=O)c2cc(Cn3ccn(C)c3=N)cc(-c3ccncc3C)c2)ccc1Cl [Example 16, N-(4-Chloro-3-methylbenzyl)-3-((2-imino-3-methyl-2,3-dihydro-1H-imidazol-1-yl)methyl)-5-(3-methylpyridin-4-yl)benzamide] |  | 0.49 |
| Cc1cc([C@@H](NC(=O)c2cc(Cn3ccn(C)c3=N)cc(-c3cnc(F)cc3C)c2)C2CC2)ccc1F [Example 113, (S)—N-(Cyclopropyl(4-fluoro-3-methylphenyl)methyl)-3-(6-fluoro-4-methylpyridin-3-yl)-5-((2-imino-3-methyl-2,3-dihydro-1H-imidazol-1-yl)methyl)benzamide] |  | > 33 |
| N=C1SCCN1Cc1cc(C(=O)N[C@H](c2ccc(Cl)c(Cl)c2)C2CC2)cc(-c2ncc(F)cc2C(F)(F)F)c1 [Example 317, (S)—N-(Cyclopropyl(3,4-dichlorophenyl)methyl)-3-(5-fluoro-3-(trifluoromethyl)pyridin-2-yl)-5-((2-iminothiazolidin-3-yl)methyl)benzamide] | 0.28 |  |
| CC(C)n1cc(-c2cc(CN3CCSC3=N)cc(C(=O)N[C@H](c3ccc(F)c(F)c3)C3CC3)c2)c(C(F)(F)F)n1 [Example 319, (S)—N-(Cyclopropyl(3,4-difluorophenyl)methyl)-3-((2-iminothiazolidin-3-yl)methyl)-5-(1-isopropyl-3-(trifluoromethyl)-1H-pyrazol-4-yl)benzamide] |  | 0.32 |
| Cc1cc([C@H](C)NC(=O)c2cc(Cn3ccn(C)c3=N)cc(OC(F)(F)F)c2)ccc1F [Example 170, (S)—N-(1-(4-Fluoro-3-methylphenyl)ethyl)-3-((2-imino-3-methyl-2,3-dihydro-1H-imidazol-1-yl)methyl)-5-(trifluoromethoxy)benzamide] | 0.22 |  |
| CCn1cc(-c2cc(CN3CCSC3=N)cc(C(=O)NCc3ccc(=O)n(C)c3)c2)c(C(F)(F)F)n1 [Example 323, 3-(1-Ethyl-3-(trifluoromethyl)-1H-pyrazol-4-yl)-5-((2-iminothiazolidin-3-yl)methyl)-N-((1-methyl-6-oxo-1,6-dihydropyridin-3-yl)methyl)benzamide] | 1.8 |  |
| COc1cc(CNC(=O)c2cc(Cn3ccn(C)c3=N)cc(-c3c[nH]c(=O)cc3C)c2)cc(OC)c1 [Example 81, N-(3,5-Dimethoxybenzyl)-3-((2-imino-3-methyl-2,3-dihydro-1H-imidazol-1-yl)methyl)-5-(4-methyl-6-oxo-1,6-dihydropyridin-3-yl)benzamide] |  | 13 |
| Cc1ncccc1-c1cc(Cn2ccn(C)c2=N)cc(C(=O)NCc2cncnc2)c1 [Example 40, 3-((2-Imino-3-methyl-2,3-dihydro-1H-imidazol-1-yl)methyl)-5-(2-methylpyridin-3-yl)-N-(pyrimidin-5-ylmethyl)benzamide] |  | 133 |
| Cc1cc([C@@H](NC(=O)c2cc(Cn3cccc(F)c3=N)cc(-c3cc(C(F)(F)F)nn3C)c2)C2CC2)ccc1F [Example 345, (S)—N-(Cyclopropyl (4-fluoro-3-methylphenyl)methyl)-3-((3-fluoro-2-iminopyridin-1(2H)-yl)methyl)-5-(1-methyl-3-(trifluoromethyl)-1H-pyrazol-5-yl)benzamide] | 2.4 |  |
| N=c1n(Cc2cc(C(=O)N[C@H](c3ccc(Cl)c(Cl)c3)C3CC3)cc(-c3cccnc3C(F)(F)F)c2)ccn1C1CC1 [Example 155, (S)—N-(Cyclopropyl(3,4-dichlorophenyl)methyl)-3-((3-cyclopropyl-2-imino-2,3-dihydro-1H-imidazol-1-yl)methyl)-5-(2-(trifluoromethyl)pyridin-3-yl)benzamide] |  | 1.4 |
| Cc1cc([C@@H](NC(=O)c2cc(CN3CCSC3=N)cc(-c3cn(C4CCCC4)nc3C(F)(F)F)c2)C2CC2)ccc1F [Example 314, (S)-3-(1-Cyclopentyl-3-(trifluoromethyl)-1H-pyrazol-4-yl)-N-(cyclopropyl(4-fluoro-3-methylphenyl)methyl)-5-((2-iminothiazolidin-3-yl)methyl)benzamide] |  | 4 |
| CCOc1c(C(=O)N[C@H](c2ccc(F)c(C)c2)C2CC2)cc(Cn2ccoc2=N)cc1-c1cn(C)nc1C(F)(F)F [Example 304] |  | < 0.1 |
